Measurements taken from US10206399B2, “Herbicidal composition comprising uracil compound as active ingredient” (Dongbu Farm Hannong Co., Ltd., priority 2012, dated 2019).
Read-outs that look alike come from different tables or passages of the source.

Assays:
Digitaria sanguinalis = details: for plant mortality, measured value: Digitaria sanguinalis; for Digitaria sanguinalis mortality, measured value: 20 days after treatment
Text: (§1) X is % damage by uracil compound (a) of formula 1 at the rate of application of p kg/ha; Y is % damage by conventional herbicidal compound (b) at the rate of application of q kg/ha; and E is the expected damage caused by compounds (a) and (b) at a rate of application of p and q kg/ha.
(§2) The expected activity for a given combination of two herbicides can be calculated using equation 1 above.

Xanthium spinosum = assay: whole plant or invertebrate; details: for pest or weed control at 25 g/ha: read-out: Data (measured value) Xanthium spinosum, 25 g/ha
Text: as §1, §2

Aeschynomene indica = assay: whole plant or invertebrate; details: for pest or weed control at 25 g/ha: read-out: Data (measured value) Aeschynomene indica, 25 g/ha
Text: as §1, §2

Abutilon theophrasti = assay: whole plant or invertebrate; details: for pest or weed control at 25 g/ha: read-out: Data (measured value) Abutilon theophrasti, 25 g/ha
Text: as §1, §2

Echinochloa crus = details: for plant mortality, measured value: Echinochloa crus; for Echinochloa crus mortality, measured value: 20 days after treatment
Text: as §1, §2

[1] = read-out: plant mortality, measured value, 375 g/ha
[2] = read-out: plant mortality, measured value, 750 g/ha
[3] = read-out: plant mortality, measured value, 1500 g/ha
[4] = 480 h, read-out: Xanthium spinosum mortality, measured value
[5] = read-out: plant mortality, measured value, 150 g/ha
[6] = read-out: plant mortality, measured value, 300 g/ha
[7] = read-out: plant mortality, measured value, 600 g/ha
[8] = 480 h, read-out: Aeschynomene indica mortality, measured value
[9] = 480 h, read-out: Abutilon theophrasti mortality, measured value

With `CCc1cc(C)cc(CC)c1-c1c(OC(=O)C(C)(C)C)n2n(c1=O)CCOCC2` [Pinoxaden] the “Data (measured value) Digitaria sanguinalis” value (Digitaria sanguinalis; 6.25 g/ha) was 12, the “Data (measured value) Digitaria sanguinalis” value (Digitaria sanguinalis; 12.5 g/ha) was 26 and the “Data (measured value) Digitaria sanguinalis” value (Digitaria sanguinalis; 25 g/ha) was 57. For the same compound, the pest or weed control at 6.25 g/ha (Xanthium spinosum; read-out: Data (measured value) Xanthium spinosum, 6.25 g/ha) was 0%, the pest or weed control at 12.5 g/ha (Xanthium spinosum; read-out: Data (measured value) Xanthium spinosum, 12.5 g/ha) was 0% and the pest or weed control at 25 g/ha (Xanthium spinosum) was 0%. For the same compound, the pest or weed control at 6.25 g/ha (Aeschynomene indica; read-out: Data (measured value) Aeschynomene indica, 6.25 g/ha) was 0%, the pest or weed control at 12.5 g/ha (Aeschynomene indica; read-out: Data (measured value) Aeschynomene indica, 12.5 g/ha) was 0% and the pest or weed control at 25 g/ha (Aeschynomene indica) was 0%. The pest or weed control at 6.25 g/ha (Abutilon theophrasti; read-out: Data (measured value) Abutilon theophrasti, 6.25 g/ha) was 0%, the pest or weed control at 12.5 g/ha (Abutilon theophrasti; read-out: Data (measured value) Abutilon theophrasti, 12.5 g/ha) was 0% and the pest or weed control at 25 g/ha (Abutilon theophrasti) was 0%. For the same compound, the “Data (measured value) Echinochloa crus” value (Echinochloa crus; 6.25 g/ha) was 10, the “Data (measured value) Echinochloa crus” value (Echinochloa crus; 12.5 g/ha) was 29 and the “Data (measured value) Echinochloa crus” value (Echinochloa crus; 25 g/ha) was 63.

`COc1c(Cl)ccc(Cl)c1C(=O)O` [Dicamba] was tested, and the “Data (measured value) Digitaria sanguinalis” value (Digitaria sanguinalis; 75 g/ha) was 0, the “Data (measured value) Digitaria sanguinalis” value (Digitaria sanguinalis; 150 g/ha) was 0 and the “Data (measured value) Digitaria sanguinalis” value (Digitaria sanguinalis; 300 g/ha) was 0. For the same compound, the pest or weed control at 75 g/ha (Xanthium spinosum; read-out: Data (measured value) Xanthium spinosum, 75 g/ha) was 13%, the pest or weed control at 150 g/ha (Xanthium spinosum; read-out: Data (measured value) Xanthium spinosum, 150 g/ha) was 29% and the pest or weed control at 300 g/ha (Xanthium spinosum; read-out: Data (measured value) Xanthium spinosum, 300 g/ha) was 62%. The pest or weed control at 75 g/ha (Aeschynomene indica; read-out: Data (measured value) Aeschynomene indica, 75 g/ha) was 7%, the pest or weed control at 150 g/ha (Aeschynomene indica; read-out: Data (measured value) Aeschynomene indica, 150 g/ha) was 23% and the pest or weed control at 300 g/ha (Aeschynomene indica; read-out: Data (measured value) Aeschynomene indica, 300 g/ha) was 51%. The pest or weed control at 75 g/ha (Abutilon theophrasti; read-out: Data (measured value) Abutilon theophrasti, 75 g/ha) was 9%, the pest or weed control at 150 g/ha (Abutilon theophrasti; read-out: Data (measured value) Abutilon theophrasti, 150 g/ha) was 20% and the pest or weed control at 300 g/ha (Abutilon theophrasti; read-out: Data (measured value) Abutilon theophrasti, 300 g/ha) was 46%. The “Data (measured value) Echinochloa crus” value (Echinochloa crus; 75 g/ha) was 0, the “Data (measured value) Echinochloa crus” value (Echinochloa crus; 150 g/ha) was 0 and the “Data (measured value) Echinochloa crus” value (Echinochloa crus; 300 g/ha) was 0.

With `CCO/N=C(\CC)C1=C(O)CC(c2c(C)cc(C)cc2C)CC1=O` (stereo not drawn) [Tralkoxydim] the “Data (measured value) Digitaria sanguinalis” value (Digitaria sanguinalis; 25 g/ha) was 8, the “Data (measured value) Digitaria sanguinalis” value (Digitaria sanguinalis; 50 g/ha) was 21 and the “Data (measured value) Digitaria sanguinalis” value (Digitaria sanguinalis; 100 g/ha) was 47. For the same compound, the pest or weed control at 25 g/ha (Xanthium spinosum) was 0%, the pest or weed control at 50 g/ha (Xanthium spinosum; read-out: Data (measured value) Xanthium spinosum, 50 g/ha) was 0% and the pest or weed control at 100 g/ha (Xanthium spinosum; read-out: Data (measured value) Xanthium spinosum, 100 g/ha) was 0%. The pest or weed control at 25 g/ha (Aeschynomene indica) was 0%, the pest or weed control at 50 g/ha (Aeschynomene indica; read-out: Data (measured value) Aeschynomene indica, 50 g/ha) was 0% and the pest or weed control at 100 g/ha (Aeschynomene indica; read-out: Data (measured value) Aeschynomene indica, 100 g/ha) was 0%. For the same compound, the pest or weed control at 25 g/ha (Abutilon theophrasti) was 0%, the pest or weed control at 50 g/ha (Abutilon theophrasti; read-out: Data (measured value) Abutilon theophrasti, 50 g/ha) was 0% and the pest or weed control at 100 g/ha (Abutilon theophrasti; read-out: Data (measured value) Abutilon theophrasti, 100 g/ha) was 0%. For the same compound, the “Data (measured value) Echinochloa crus” value (Echinochloa crus; 25 g/ha) was 10, the “Data (measured value) Echinochloa crus” value (Echinochloa crus; 50 g/ha) was 24 and the “Data (measured value) Echinochloa crus” value (Echinochloa crus; 100 g/ha) was 56.

`CCC(=O)Nc1ccc(Cl)c(Cl)c1` [Propanil] was tested, and the “plant mortality, measured value” (Digitaria sanguinalis; 375 g/ha) was 7, the “plant mortality, measured value” (Digitaria sanguinalis; 750 g/ha) was 22 and the “plant mortality, measured value” (Digitaria sanguinalis; 1500 g/ha) was 45. For the same compound, the pest or weed control at 375 g/ha (Xanthium spinosum; [1]) was 10%, the pest or weed control at 750 g/ha (Xanthium spinosum; [2]) was 24% and the pest or weed control at 1500 g/ha (Xanthium spinosum; [3]) was 58%. For the same compound, the pest or weed control at 375 g/ha (Aeschynomene indica; [1]) was 10%, the pest or weed control at 750 g/ha (Aeschynomene indica; [2]) was 27% and the pest or weed control at 1500 g/ha (Aeschynomene indica; [3]) was 56%. For the same compound, the pest or weed control at 375 g/ha (Abutilon theophrasti; [1]) was 10%, the pest or weed control at 750 g/ha (Abutilon theophrasti; [2]) was 23% and the pest or weed control at 1500 g/ha (Abutilon theophrasti; [3]) was 56%. The “plant mortality, measured value” (Echinochloa crus; 375 g/ha) was 11, the “plant mortality, measured value” (Echinochloa crus; 750 g/ha) was 21 and the “plant mortality, measured value” (Echinochloa crus; 1500 g/ha) was 46.

For `O=C(O)CNCP(=O)(O)O` [Glyphosate, reference compound], the “Digitaria sanguinalis mortality, measured value” (“Digitaria sanguinalis mortality” for short) (Digitaria sanguinalis; 150 g/ha) was 8%, the “plant mortality, measured value” (Digitaria sanguinalis; 150 g/ha) was 8 and the “Digitaria sanguinalis mortality” value (Digitaria sanguinalis; 300 g/ha) was 18%. For the same compound, the “plant mortality, measured value” (Digitaria sanguinalis; 300 g/ha) was 18, the “Digitaria sanguinalis mortality” value (Digitaria sanguinalis; 600 g/ha) was 46% and the “plant mortality, measured value” (Digitaria sanguinalis; 600 g/ha) was 46. For the same compound, the mortality at 150 g/ha (Xanthium spinosum; [4]) was 11%, the mortality at 300 g/ha (Xanthium spinosum; [4]) was 30% and the mortality at 600 g/ha (Xanthium spinosum; [4]) was 64%. It also gave a pest or weed control at 150 g/ha (Xanthium spinosum; [5]) of 11%, a pest or weed control at 300 g/ha (Xanthium spinosum; [6]) of 30% and a pest or weed control at 600 g/ha (Xanthium spinosum; [7]) of 64%. The mortality at 150 g/ha (Aeschynomene indica; [8]) was 9%, the mortality at 300 g/ha (Aeschynomene indica; [8]) was 22% and the mortality at 600 g/ha (Aeschynomene indica; [8]) was 47%. For the same compound, the pest or weed control at 150 g/ha (Aeschynomene indica; [5]) was 9%, the pest or weed control at 300 g/ha (Aeschynomene indica; [6]) was 22% and the pest or weed control at 600 g/ha (Aeschynomene indica; [7]) was 47%. The mortality at 150 g/ha (Abutilon theophrasti; [9]) was 8%, the mortality at 300 g/ha (Abutilon theophrasti; [9]) was 27% and the mortality at 600 g/ha (Abutilon theophrasti; [9]) was 59%. It also gave a pest or weed control at 150 g/ha (Abutilon theophrasti; [5]) of 8%, a pest or weed control at 300 g/ha (Abutilon theophrasti; [6]) of 27% and a pest or weed control at 600 g/ha (Abutilon theophrasti; [7]) of 59%. For the same compound, the “Echinochloa crus mortality, measured value” (“Echinochloa crus mortality” below) (Echinochloa crus; 150 g/ha) was 12%, the “plant mortality, measured value” (Echinochloa crus; 150 g/ha) was 12 and the “Echinochloa crus mortality” value (Echinochloa crus; 300 g/ha) was 23%. For the same compound, the “plant mortality, measured value” (Echinochloa crus; 300 g/ha) was 23, the “Echinochloa crus mortality” value (Echinochloa crus; 600 g/ha) was 48% and the “plant mortality, measured value” (Echinochloa crus; 600 g/ha) was 48.
